Measurements as given in patent US12378245B2, “Crystalline forms of an RSK inhibitor” (PHOENIX MOLECULAR DESIGNS, priority 2019, dated 2025).

What was measured:
Type in all cases: physicochemical
[1] = Dynamic Vapor Sorption (DVS); settings: for form by post-DVS XRPD analysis: after exposure to DVS humidity conditions
Procedure: Approximately, 10-20 mg of sample was placed into a mesh vapour sorption balance pan and loaded into a DVS Intrinsic dynamic vapour sorption balance by Surface Measurement Systems. The sample was subjected to a ramping profile from 40-90% relative humidity (RH) at 10% increments, maintaining the sample at each step until a stable weight had been achieved (dm/dt 0.004%, minimum step length 30 minutes, maximum step length 500 minutes) at 25° C. After completion of the sorption cycle, the sample was dried using the same procedure to 0% RH and then a second sorption cycle back to 40% RH. Two cycles were performed. The weight change during the sorption/desorption cycles were plotted, allowing for the hygroscopic nature of the sample to be determined. XRPD analysis was then carried out on any solid retained.

[2] = Stability Studies - Eight Week Study; settings: 40° C./75% RH (uncapped), 80° C. (capped), ambient light and temperature (approx. 22° C.)
Procedure: About 5 mg of Compound 1, Form 1 was weighed into twenty-four, 1.5 mL glass vials. Each vial was placed at either 40° C./75% RH (uncapped vial), 80° C. (capped vial) and under ambient light and temperature (approx. 22° C., capped vial) for a total of 8 weeks. […] was removed from each condition for XRPD, ^1H NMR and HPLC purity analysis at 1 week, 2 weeks, 4 weeks and 8 weeks.

[3] = Stability Studies - One Week Study; settings: 40° C./75% RH or 80° C./under ambient light for 1 week
Procedure: About 15 mg of Compound 1, Forms 1 and 2 were separately placed at either 40° C./75% RH or 80° C./under ambient light for 1 week. The resulting solids were analysed by XRPD and HPLC purity. No changes in Form 1 or Form 2 were observed under these conditions after 1 week.

SMILES | form by post-DVS XRPD analysis ([1]; listed as Form 2 of Compound 1, hydrochloride) | change in mass / mass uptake by DVS ([1]; at 90% RH, 25° C., listed as Form 2 of Compound 1, hydrochloride) | change in purity by HPLC ([2]; 8 weeks) | change by XRPD and NMR analysis ([2]; after 8 weeks) | changes by XRPD and HPLC purity [3] | form by post-DVS XRPD analysis ([1]; listed as Form 1 of Compound 1, hydrochloride) | water uptake by DVS ([1]; at 90% RH, 25° C.) | change in mass / mass uptake by DVS ([1]; at 90% RH, 25° C., listed as Form 1 of Compound 1, hydrochloride) | hygroscopic nature by DVS ([1]; ramping 40-90% RH, 25° C., two cycles)
C[C@@H]1CNC(=O)c2cc3ccc(C(=O)Nc4cnn(Cc5ccc(N)cc5)c4)nc3n21.Cl [Compound 1, Form 2, (R)—N-(1-(4-aminobenzyl)-1H-pyrazol-4-yl)-9-methyl-6-oxo-6,7,8,9-tetrahydropyrido[3′,2′:4,5]pyrrolo[1,2-a]pyrazine-2-carboxamide hydrochloride] | no change in form | 1.8% |  |  |  |  |  |  | 
C[C@@H]1CNC(=O)c2cc3ccc(C(=O)Nc4cnn(Cc5ccc(N)cc5)c4)nc3n21.Cl [Compound 1, Form 1, (R)—N-(1-(4-aminobenzyl)-1H-pyrazol-4-yl)-9-methyl-6-oxo-6,7,8,9-tetrahydropyrido[3′,2′:4,5]pyrrolo[1,2-a]pyrazine-2-carboxamide hydrochloride] |  |  | no significant change | no change | No changes | remained as Form 1 | 0.2 equiv. of water | +0.8% | slightly hygroscopic
